According to patent US12054510B2, “2′ and/or 5′ amino-acid ester phosphoramidate 3′-deoxy adenosine derivatives as anti-cancer compounds” (Nucana plc, priority 2014, dated 2024):

System: NCI-H929
Assay: Solid tumour and haematological malignancy assay (CellTiterGlo)
Type: cell-based
Details: Homo sapiens, NCI-H929, 72 h, read-out: MI %
Description: In vitro viability assay were performed to assess the effects of compounds on cell viability in selected cell lines over 72 hr using the CellTiterGlo (CTG, Promega-G7573) assay. The tests were performed in duplicates with treatment of compounds at 9 points, 3.16 folds titration in 96 well plates over ˜72 hr. The compound starting concentrations were […]. Cell viability assay using CellTiterGlo in 96-well plate were performed. Compound treatment 72 hrs, standard growth conditions, duplicates. Compounds were dissolved to 40 mM with thawed […]. Compounds were serially diluted at 3.16 fold in thawed DMSO, and warmed to 37° C. before being dissolved in media (2 μl+200 μl). After compounds were dissolved in media, media containing compounds were warmed to 37° C. in incubator and then compounds in media were added to cell plates (50 μl+50 μl) in duplicates. The compounds' final concentrations were from 198M to 19.9 nM. All compound solubilities were checked and recorded again, then the plates were transferred to CO2 tissue culture incubator immediately and incubated for 3 days. DMSO final concentration is 0.5%.

Compound: COC(=O)C(C)(C)NP(=O)(OC[C@@H]1C[C@@H](O)[C@H](n2cnc3c(N)ncnc32)O1)Oc1cccc2ccccc12 (stereo partly drawn) [E, Methyl 2-(((((2S,4R,5R)-5-(6-amino-9H-purin-9-yl)-4-hydroxytetrahydrofuran-2-yl)-methoxy)(naphthalen-1-yloxy)phosphoryl)amino)-2-methylpropanoate]
- Emax: 98%
